“And” between values parts separate entries of the source, which are not always exact repeats. Identical values can stand only once. Like-named read-outs stand apart in the source and are kept apart here.
Legend:
CgBdf1 BD1 [1] = biological target: CgBdf1 BD1 (Candida glabrata, UniProt Q6FWV7); assay: HTRF assay, inhibition of H4ac4 peptide binding; design: species or system C. glabrata; conditions: single experiments Exp1-3; for IC50: Fig 2C original data, analogs of 24, read-out: pIC50 CgBD1 (converted); for pIC50 CgBD1: Fig 1D/2A original data
CgBdf1 BD2 [2] = biological target: CgBdf1 BD2 (Candida glabrata, UniProt Q6FWV7); assay: biochemical; assay type: binding, C. glabrata; conditions: for IC50: Fig 2C original data, analogs of 24, read-out: pIC50 CgBD2 (converted)
[3] = system: C. glabrata strains expressing WT and mutant Bdf1; assay: Growth inhibition in liquid media, C. glabrata lab strains; conditions: for EC50: Nakaseomyces glabratus; for pEC50 growth inhibition: Fig 2C; for OD at 600 nm: Figure S4B, Exp 1-3
Procedure: Growth on Liquid Media with C. glabrata Lab Strains: Cells were grown at 30 °C in SC+M+C‐U medium (SC medium with 5 mM methionine, 0.25 mM cysteine, without uracil) to an OD600 of 0.5–0.8. […] Plates were incubated at 30 °C and OD600 was measured using a Multiskan FC Microplate Photometer (Thermo Fisher).

CgBdf1 BD1 [4] = assay: Histone peptide array assay; conditions: peptide array signal; for Raw data, WT / Normalized (0 to 100%), WT: CgBdf1 BD1 WT; for Normalized (0 to 100%), WT / Normalized (0 to 100%), YF mutant: mean of the two raw values; for Raw data, YF mutant / Normalized (0 to 100%), YF mutant: CgBdf1 BD1 YF mutant
Procedure: (§1) The array was prepared as described in the manufacturer's instructions. […] The array was then washed three times with binding buffer. Anti‐GST antibody (GE Healthcare) was used for the detection of GST‐tagged bromodomains.

CgBdf1 BD2 [5] = assay: Histone peptide array assay; conditions: peptide array signal; for Raw data, WT / Normalized (0 to 100%), WT: CgBdf1 BD2 WT; for Normalized (0 to 100%), WT / Normalized (0 to 100%), YF mutant: mean of the two raw values; for Raw data, YF mutant / Normalized (0 to 100%), YF mutant: CgBdf1 BD2 YF mutant
Procedure: as §1

[6] = read-out: pEC50 (WT BDF1), Fig 2D (converted), WT C. glabrata, single experiments Exp1-3
[7] = read-out: pEC50 growth inhibition, Fig 2C (converted), strain BD1 Y-F, single experiments Exp1-3
[8] = read-out: pEC50 growth inhibition, Fig 2C (converted), strain BD2 Y-F, single experiments Exp1-3

Chain of CgBdf1 BD2 (Candida glabrata, UniProt Q6FWV7) (Q6FWV7 entry or part of it): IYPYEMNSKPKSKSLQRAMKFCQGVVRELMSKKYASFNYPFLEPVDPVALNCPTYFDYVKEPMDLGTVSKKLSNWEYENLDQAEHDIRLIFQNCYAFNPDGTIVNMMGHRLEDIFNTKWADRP
Chain of CgBdf1 BD1 (Candida glabrata, UniProt Q6FWV7) (Q6FWV7 entry or part of it): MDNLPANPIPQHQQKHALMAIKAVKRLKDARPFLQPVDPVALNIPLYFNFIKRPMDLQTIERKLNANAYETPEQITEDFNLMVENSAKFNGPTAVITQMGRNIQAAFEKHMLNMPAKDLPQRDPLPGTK

COC(=O)c1cccc(CNc2nc(-c3ccc(C)cc3)nnc2C)c1 [Compound 24l, Methyl 3‐(((6‐methyl‐3‐(p‐tolyl)‐1,2,4‐triazin‐5‐yl)amino)methyl)benzoate]
IC50 (CgBdf1 BD1 [1]): 79.4 µM and 39.6 µM and 89.9 µM
IC50 (CgBdf1 BD2 [2]; single experiments Exp1-3): > 100 µM
EC50 [3, 6]: > 251 µM
EC50 [3, 7]: > 251 µM
EC50 [3, 8]: > 251 µM

COc1ccccc1S(=O)(=O)Nc1ccc2c(c1)CN(C)C(=O)N2 [PFI-1, reference compound]
pIC50 CgBD1 (CgBdf1 BD1 [1]): 4.63 and 4.61
pIC50 CgBD2 (CgBdf1 BD2 [2]): * 4

Cc1cccc(-c2nnc(C)c(NCc3ccc(C)o3)n2)c1 [Compound 24d]
IC50 (CgBdf1 BD1 [1]): 14.2 µM and 12.2 µM and 11.5 µM
IC50 (CgBdf1 BD2 [2]; single experiments Exp1-3): 16.4 µM and 18.7 µM and 21.5 µM
pEC50 growth inhibition ([3]; strain BD1 Y-F, single experiments Exp1-3): 3.797 and 3.888
pEC50 growth inhibition ([3]; strain BD2 Y-F, single experiments Exp1-3): 4.459 and 4.324
pEC50 (WT BDF1) ([3]; Fig 2D, WT C. glabrata, single experiments Exp1-3): 3.713 and 3.843
EC50 [3, 6]: 101 µM
EC50 [3, 7]: 134 µM
EC50 [3, 8]: 44.7 µM

CCNC(=O)C[C@@H]1N=C(c2ccc(Cl)cc2)c2cc(OC)ccc2-n2c(C)nnc21 [I-BET]
OD at 600 nm ([3]; WT BDF1 strain): 0.369 and 0.413 and 0.420
OD at 600 nm ([3]; bdf1-bd1Δ strain): 0.298 and 0.365 and 0.364
OD at 600 nm ([3]; bdf1-bd2Δ strain): 0.164 and 0.171 and 0.191

COC(=O)c1ccc(CNc2nc(-c3ccc(C)cc3)nnc2C)cc1 [Compound 24k, Methyl 4‐(((6‐methyl‐3‐(p‐tolyl)‐1,2,4‐triazin‐5‐yl)amino)methyl)benzoate]
IC50 (CgBdf1 BD1 [1]): > 100 µM
IC50 (CgBdf1 BD2 [2]; single experiments Exp1-3): > 100 µM
EC50 [3, 6]: > 251 µM
EC50 [3, 7]: > 251 µM
EC50 [3, 8]: > 251 µM

COc1ccccc1S(=O)(=O)Nc1ccc2c(c1)CN(C)C(=O)N2 [PFI]
OD at 600 nm ([3]; WT BDF1 strain): 0.381 and 0.415 and 0.390
OD at 600 nm ([3]; bdf1-bd1Δ strain): 0.323 and 0.367 and 0.349
OD at 600 nm ([3]; bdf1-bd2Δ strain): 0.181 and 0.163 and 0.165

COc1ccc(CNc2nc(-c3cccc(C)c3)nnc2C)cc1OC [Compound 24j]
IC50 (CgBdf1 BD1 [1]): 4.11 µM and 5.81 µM and 4.81 µM
IC50 (CgBdf1 BD2 [2]; single experiments Exp1-3): 57 µM and 58.2 µM and 82.4 µM
EC50 [3, 6]: > 251 µM
EC50 [3, 7]: > 251 µM
EC50 [3, 8]: > 251 µM

I-BET151 [reference compound]
pIC50 CgBD1 (CgBdf1 BD1 [1]; listed as IBET-151): 5.54 and 5.64 and 5.77
pIC50 CgBD1 (CgBdf1 BD1 [1]; listed as i-BET151): 5.772 and 5.641
pIC50 CgBD2 (CgBdf1 BD2 [2]; Fig 1D/2A original data, single experiments Exp1-3, listed as IBET-151): 6.30 and 6.21 and 6.31
pIC50 CgBD2 (CgBdf1 BD2 [2]; Fig 1D/2A original data, single experiments Exp1-3, listed as i-BET151): 6.297 and 6.205

Cc1ccc(C(=N)NN)cc1 [Compound 66]
Raw data, WT (CgBdf1 BD1 [4]; first replicate column): 0.007561
Normalized (0 to 100%), WT (CgBdf1 BD1 [4]): 2.32%
Raw data, WT (CgBdf1 BD1 [4]; second replicate column): 0.03875
Raw data, YF mutant (CgBdf1 BD1 [4]; first replicate column): 0.003085
Normalized (0 to 100%), YF mutant (CgBdf1 BD1 [4]): 0.308%
Raw data, YF mutant (CgBdf1 BD1 [4]; second replicate column): 0.003085
Raw data, WT (CgBdf1 BD2 [5]; first replicate column): 0.007798
Normalized (0 to 100%), WT (CgBdf1 BD2 [5]): 0.717%
Raw data, WT (CgBdf1 BD2 [5]; second replicate column): 0.00655
Raw data, YF mutant (CgBdf1 BD2 [5]; first replicate column): 0.005521
Normalized (0 to 100%), YF mutant (CgBdf1 BD2 [5]): 0.276%
Raw data, YF mutant (CgBdf1 BD2 [5]; second replicate column): 0

CCOC(=N)c1ccc(C)cc1 [Compound 65]
Raw data, WT (CgBdf1 BD1 [4]; first replicate column): 0.0009452
Normalized (0 to 100%), WT (CgBdf1 BD1 [4]): 1.47%
Raw data, WT (CgBdf1 BD1 [4]; second replicate column): 0.02836
Raw data, YF mutant (CgBdf1 BD1 [4]; first replicate column): 0.001851
Normalized (0 to 100%), YF mutant (CgBdf1 BD1 [4]): 0.247%
Raw data, YF mutant (CgBdf1 BD1 [4]; second replicate column): 0.003085
Raw data, WT (CgBdf1 BD2 [5]; first replicate column): 0.004991
Normalized (0 to 100%), WT (CgBdf1 BD2 [5]): 0.421%
Raw data, WT (CgBdf1 BD2 [5]; second replicate column): 0.003431
Raw data, YF mutant (CgBdf1 BD2 [5]; first replicate column): 0.007362
Normalized (0 to 100%), YF mutant (CgBdf1 BD2 [5]): 0.383%
Raw data, YF mutant (CgBdf1 BD2 [5]; second replicate column): 0.0003067

Reference: PMC11904993, “Humanized Candida and NanoBiT Assays Expedite Discovery of Bdf1 Bromodomain Inhibitors With Antifungal Potential” (Advanced Science, 2025)
